Reference: patent publication US20190358242A1, “COMPOSITIONS, KITS, AND METHODS TO INDUCE ACQUIRED CYTORESISTANCE USING STRESS PROTEIN INDUCERS” (FRED HUTCHINSON CANCER RESEARCH CENTER, priority 2017, published 2019)
Values joined by “and” are separate entries in the source; they are usually repeats but may differ in a detail not shown here. Equal values may be shown once.

Columns and labels:
Type in all cases: in vivo, CD-1 mice
maleate model of AKI = assay: Maleate model of AKI (800 mg/Kg), FeS/SnPP and FeS/B12; settings: IV 18 hrs before 800 mg/Kg maleate; 18 hrs post maleate; 1 mg FeS, 1 μmole SnPP or B12
Text: Effects of Fe sucrose (FeS)/tin protoporphyrin (SnPP) on AKI severity. Maleate model of AKI. When injected into rodents, maleate undergoes relatively selective proximal tubule cell uptake via organic anion transporters. Once intracellular accumulation occurs, maleate is a preferred substrate for succinyl-CoA:3-oxoacid CoA transferase. […] Ample levels of CoA are essential for fatty acid “activation”, allowing for their subsequent metabolism through the Krebs cycle, yielding ATP. In the absence of this process, proximal tubule ATP depletion and cell injury result. Additionally, maleate conjugates the sulfhydryl group of glutathione (GSH), culminating in GSH depletion and potential oxidant tubular stress.
The following experiment tested whether FeS, SnPP or combined FeS+SnPP can mitigate this form of acute kidney injury (AKI). Twenty seven mice were subjected to 200 μL IV tail injections of one of the following: 1) vehicle (phosphate buffered saline, PBS; n, 10); 2) 1 mg FeS (American Regent (Shirley, N.Y.; n, 3); 3) 1 μmole SnPP (Frontier Scientific, Logan, Utah; n 7), or FeS+SnPP, n, 7). […] The severity of kidney injury was assessed by determining plasma blood urea nitrogen (BUN) and plasma creatinine (PCr) concentrations.
Maleate model of AKI. […] The severity of AKI was determined 18 hrs post maleate injection by terminal BUN and PCr assessments.

HO-1 protein = assay: Renal cortex HO-1 protein (ELISA) after IV myoglobin, SnPP or both; settings: 4 hr IV; 1 mg myoglobin, 1 μmole SnPP
Text: (§1) The Glycerol Model of AKI. This is a widely used model of rhabdomyolysis-induced AKI that has been employed worldwide for 50 years. The model was used to test whether prophylactic interventions confer protection against AKI. Basically, the protocol is as follows: Male CD-1 mice (35-45 grams), obtained from Charles River Laboratories, Wilmington, Mass. were studied. Mice were maintained under standard vivarium conditions and generally housed for 1-3 weeks prior to study. The mice were placed in a cylindrical restraining cage, and then were given a tail vein injection of the test substances (see below) or test substance vehicle. The mice were then returned to their cages. Eighteen hours (hrs) later, the mice were briefly anesthetized by isoflurane inhalation, and given an intramuscular injection of hypertonic (50%) glycerol in a dose of 9 ml/Kg body weight. The dose is divided in two, with half injected into the muscle of each of the hind limbs. The mice were then returned to their cages. Eighteen hrs later, the mice were deeply anesthetized with pentobarbital (50-100 mg/Kg), the abdominal cavity was opened through a midline abdominal incision, a blood sample was obtained from the abdominal vena cava and the kidneys were resected. A kidney cross section was obtained and fixed in formalin for subsequent histologic analysis. The terminal blood samples were analyzed for BUN and creatinine, using commercially available assay kits. The remaining kidney tissue was subjected to cortical dissection, and the cortical tissues were then extracted for protein and RNA. The protein samples were saved for analysis of HO-1 levels, and the RNA samples were subjected to RT-PCR to quantify HO-1 mRNA as well as levels of other stress gene mRNAs (e.g. NGAL, haptoglobin, hemopexin, hepicidin).
(§2) Myoglobin+SnPP: To 5 mg of dry myoglobin was added 0.9 ml of PBS+0.1 ml of a stock SnPP solution (50 umole/ml). The resulting final concentrations were 5 mg/ml myoglobin+5 umoles/ml of SnPP. The tail vein was injected with 200 ul of this solution, which equals 1 mg myoglobin+1 umole SnPP. […]
Four hr post myoglobin vs myoglobin+SnPP vs SnPP alone experiments. To confirm that the myoglobin+SnPP has a synergistic effect in inducing HO-1 mRNA and HO-1 protein levels, each of the above combinations have been administered alone via tail vein injection. Four hrs later, the mice were sacrificed as noted above and the kidneys were harvested for assessment of HO-1 mRNA and protein levels. For additional information regarding methods, see Zager et al., Am J Physiol Renal Physiol. 2014 Jul. 30. Pii.
Given that it is just 4 hrs post injection, the mRNA increases are greater than the protein increases as protein synthesis must follow the mRNA induction-requiring more time.

HO-1 mRNA = assay: Renal HO-1 mRNA (RT-PCR, HO-1/GAPDH) after IV myoglobin, SnPP or both; settings: kidney, 4 hr post IV injection
Text: as §1, §2
[…] To confirm that the myoglobin+SnPP has a synergistic effect in inducing HO-1 mRNA and HO-1 protein levels, each of the above combinations have been administered alone via tail vein injection. […] For additional information regarding methods, see Zager et al., Am J Physiol Renal Physiol. 2014 Jul. 30. Pii.

IL-10 protein = assay: Kidney IL-10 protein (ELISA)
Experimental: Thirty-two mice were divided into 4 equal groups: (1) control mice; (2) mice treated with 1 mg of N-Mgb injection (as a bolus through the tail vein); (3) mice treated with […] of SnPP (via tail vein); and (4) mice treated with combined N-Mgb 1 SnPP. After either 4 hours (n=16) or 18 hours (n=16), the mice were deeply anesthetized with pentobarbital (50 mg/kg), the abdomen was opened through a midline abdominal incision, and the kidneys were removed. To determine potential effects on extrarenal organs, a liver lobe and the heart were also removed. The tissues were iced and then extracted for protein and RNA (RNeasy Plus Mini; Qiagen, Valencia, Calif.) and subjected to enzyme linked immunosorbent assay (ELISA) and reverse transcriptase polymerase chain reaction (RT-PCR) for HO-1, haptoglobin, and IL-10 protein and messenger RNAs (mRNAs). Zager et al. J Am Soc Nephrol 2014; 25:998-1012; Zager et al. Am J Physiol 2012; 303:F139-48. As an assessment of renal function, control mice and the 18 hour after N-Mgb+SnPP-treated mice had blood urea nitrogen (BUN) and plasma creatinine levels measured. Additionally, transverse 10% formalin fixed kidney sections ([…]) were cut and stained with hematoxylin and eosin (H&E) and periodic acid Schiff (PAS) to further assess potential injury.

Q: `C=Cc1c2[n-]c(c1C)/C=c1\[n-]/c(c(C)c1C=C)=C\c1[n-]c(c(CCC(=O)O)c1C)/C=c1\[n-]c(c(C)c1CCC(=O)O)=C2.[Sn+4]` [SnPP, tin protoporphyrin] was tested. Which “Severity of maleate-induced AKI (BUN/PCr), in words” value (maleate model of AKI) did it give?
A: Its value is “Neither SnPP alone nor FeS alone significantly altered the severity of renal injury”.

Q: What about the “Cortex HO-1 protein (ELISA), Average” value (HO-1 protein) of the same molecule?
A: Its value is 34.4 ng HO-1/mg protein.

Q: And the “Cortex HO-1 protein (ELISA), individual mice” value (HO-1 protein)?
A: The value was 31.5 ng HO-1/mg protein and 20.5 ng HO-1/mg protein and 53.6 ng HO-1/mg protein and 32.2 ng HO-1/mg protein.

Q: What about the “HO-1/GAPDH mRNA, Average” value (HO-1 mRNA) of the same molecule?
A: The value was 6.94.

Q: What about the “HO-1/GAPDH mRNA, individual mice” value (HO-1 mRNA) of the same molecule?
A: The value was 9.72 and 8.25 and 6.95 and 2.85.

Q: And the “Kidney IL-10 protein” value (IL-10 protein; 4 h after IV injection, N-Mgb 1 mg, SnPP 1 mmol [sic])?
A: The value was 550 ± 86.

Q: And the “Kidney protein IL-10” value (IL-10 protein; 18 h after IV injection)?
A: The value was 454 ± 51.

Q: And the “Renal IL-10 protein increase, in words” value (IL-10 protein; 18 hours, agent alone)?
A: Its value is “absence of IL-10 protein increases”.
